Data on six compounds can be found in patent publication US9012200B2, “Composition of bacterial strains, bioremediation mixture and use of this composition for the removal of contaminants from the soil and the method for purifying the soil contaminants” (priority 2012, dated 2015).

For assay [1], the system named is Stenotrophomonas sp. strain 3N. It is filed as cell-based.
The subject of assay [2] is Stenotrophomonas sp. strain 2L. The format is cell-based.
Assay [3] concerns Stenotrophomonas sp. strain 5L. It is filed as cell-based.
Assay [4] has as its system Brevundimonas sp. strain 5N. It is filed as cell-based.
Assay [5] relates to Pseudomonas sp. strain 4G. It is filed as cell-based.
For assay [6], the system named is Stenotrophomonas sp. strain 6L. It is filed as cell-based.
Assay [7] deals with model strain Escherichia coli. The conditions noted are these: according to Spain, 2003; cited from earlier work.
For assay [8], the system named is investigated strains of bacteria. The format is cell-based.
Assay [9] has as its system Brevundimonas sp. strain 2N. The format is cell-based.
Assay [10] concerns Brevundimonas sp. strain 6N. It is filed as cell-based.
For assay [11], the system named is Arthrobacter sp. strain 1N. It is filed as cell-based.
The subject of assay [12] is Achromobacter sp. strain 4P. It is filed as cell-based.
The test system of assay [13] is Pseudomonas sp. strain 3G. It is filed as cell-based.
The subject of assay [14] is Brevundimonas sp. strain 6N. Put plainly: Antibiotic MIC by E-test. The conditions noted are these: 24 h. It is filed as cell-based. The method, then: (§1) A disc diffusion method was performed to determine the susceptibility of bacteria to the selected antibiotics. We used discs soaked with the antibiotic of a well-defined concentration (BioMerioux) (Table 2) and the minimal inhibitory concentration test was carried out, using E-tests (Oxoid) (Table 3).
(§2) In the next stage of the research, MIC values of a given antibiotic for the investigated strains were determined, meaning the lowest concentration of the drug, expressed in mg/L, determined in vitro, which inhibits the growth of bacteria at a defined inoculum density, within a given time (Hryniewicz et at, 2001). These studies allow for the closer determination of the degree of susceptibility of bacteria to the applied antibiotics.
(§3) A bacterial suspension was evenly distributed on dishes with ready-to-use MHA medium (Oxoid), and then plastic testing strips (E-tests) soaked with an antibiotic with a concentration gradient were placed thereon. The dishes were incubated at 25-30° C. for 24 h, and the test results were read after this time.
(§4) The intersection of elliptical zone of inhibition, which appeared around the test strip, with the value indicator on the gradient scale of the strip, determined the lowest concentration of antibiotic, inhibiting growth of the microorganism (MIC). Similarly as in the disc diffusion method, the obtained results were compared with the guidelines contained in the relevant standards.

The subject of assay [15] is Stenotrophomonas sp. strain 6L. Put plainly: Antibiotic MIC by E-test. It is filed as cell-based. The conditions noted are these: 24 h. As to the method:
as §1, §2, §3, §4

Assay [16] relates to Arthrobacter sp. strain 1N. Put plainly: Antibiotic MIC by E-test. The format is cell-based. The conditions noted are these: strain 1N, E-test, 24 h. As to the method: as §1, §2, §3, §4
Assay [17] deals with Stenotrophomonas sp. strain 3N. Put plainly: Antibiotic MIC by E-test. It is filed as cell-based. The conditions noted are these: 24 h. As to the method:
as §1, §2, §3, §4

In assay [18] the test system is Stenotrophomonas sp. strain 2L. Put plainly: Antibiotic MIC by E-test. The format is cell-based. The conditions noted are these: 24 h. As to the method: as §1, §2, §3, §4
Assay [19] concerns Pseudomonas sp. strain 4G. Put plainly: Antibiotic MIC by E-test. It is filed as cell-based. The conditions noted are these: 24 h. The method, then: as §1, §2, §3, §4
For assay [20], the system named is Stenotrophomonas sp. strain 5L. Put plainly: Antibiotic MIC by E-test. The conditions noted are these: 24 h. The format is cell-based. As to the method: as §1, §2, §3, §4
The subject of assay [21] is Achromobacter sp. strain 4P. Put plainly: Antibiotic MIC by E-test. It is filed as cell-based. The conditions noted are these: strain 4P, E-test, 24 h. As to the method:
as §1, §2, §3, §4

Assay [22] relates to Pseudomonas sp. strain 3G. Put plainly: Antibiotic MIC by E-test. The conditions noted are these: 24 h. It is filed as cell-based. The method, then:
as §1, §2, §3, §4

Assay [23] has as its system Brevundimonas sp. strain 2N. Put plainly: Antibiotic MIC by E-test. The format is cell-based. The conditions noted are these: 24 h. The method, then: as §1, §2, §3, §4
Assay [24] relates to Brevundimonas sp. strain 5N. Put plainly: Antibiotic MIC by E-test. It is filed as cell-based. The conditions noted are these: 24 h. As to the method: as §1, §2, §3, §4
In assay [25] the test system is Brevundimonas sp. strain 6N. Put plainly: Disc diffusion antibiotic susceptibility. The format is cell-based. The method, then:
as §1
(§5) A McFarland's 0.5 inoculum was prepared from each strain's culture, using a densitometer (EMO). Then, using sterile cotton swabs, the suspension of bacterial cells was spread on dishes with ready-to-use MHA medium (Oxoid), and after 15 minutes, discs soaked with antibiotics at defined concentrations were placed on them.
(§6) The dishes were incubated at 25-30° C., and the results were read after 24 and 48 hours. The measure of susceptibility of a tested strain to a given antibiotic was the size of the inhibition zone which formed around the disc soaked with the antibiotic. The results read (sizes of zones measured in mm) were compared with the data contained in the European Committee on Antimicrobial Susceptibility Testing (EUCAST) standards from 2010 (Table 4).
(§7) The measure of susceptibility of the tested bacterial strain to a given antibiotic was the size of the inhibition zone which formed around the disc (Table 5).
On the technique in general: Agar diffusion results depend on both activity and mobility in agar.

Assay [26] relates to Stenotrophomonas sp. strain 6L. Put plainly: Disc diffusion antibiotic susceptibility. It is filed as cell-based. The conditions noted are these: 24 h. The method, then: as §1, §5, §6, §7
Assay [27] deals with Arthrobacter sp. strain 1N. Put plainly: Disc diffusion antibiotic susceptibility. It is filed as cell-based. The method, then:
as §1, §5, §6, §7

The test system of assay [28] is Stenotrophomonas sp. strain 3N. Put plainly: Disc diffusion antibiotic susceptibility. The format is cell-based. The method, then: as §1, §5, §6, §7
Assay [29] has as its system Stenotrophomonas sp. strain 2L. Put plainly: Disc diffusion antibiotic susceptibility. It is filed as cell-based. As to the method: as §1, §5, §6, §7
The subject of assay [30] is Pseudomonas sp. strain 4G. Put plainly: Disc diffusion antibiotic susceptibility. The conditions noted are these: 24 h. The format is cell-based. The method, then:
as §1, §5, §6, §7

Assay [31] relates to Stenotrophomonas sp. strain 5L. Put plainly: Disc diffusion antibiotic susceptibility. The format is cell-based. The conditions noted are these: 24 h. As to the method: as §1, §5, §6, §7
Assay [32] deals with Achromobacter sp. strain 4P. Put plainly: Disc diffusion antibiotic susceptibility. The format is cell-based. As to the method:
as §1, §5, §6, §7

For assay [33], the system named is Pseudomonas sp. strain 3G. Put plainly: Disc diffusion antibiotic susceptibility. The format is cell-based. As to the method: as §1, §5, §6, §7
The test system of assay [34] is Brevundimonas sp. strain 2N. Put plainly: Disc diffusion antibiotic susceptibility. The format is cell-based. The method, then: as §1, §5, §6, §7
The subject of assay [35] is Brevundimonas sp. strain 5N. Put plainly: Disc diffusion antibiotic susceptibility. The format is cell-based. The conditions noted are these: 24 h. The method, then:
as §1, §5, §6, §7

Where two headings read alike, the source gives them in different places.

For `O=S(=O)([O-])[O-].[Cd+2]` [Cd(II), Cadmium sulphate], the “MIC threshold values of heavy metals” value in assay [1] was 0.1 mM/L; in [2], 0.1 mM/L; in assay [3] it was 0.1 mM/L; in [4], 0.1(0.2) mM/L; in [5] (24 h), 0.1 mM/L; in [6], 0.1 mM/L. Moreover, the “MIC threshold values of heavy metals” value is on record as 0.1 mM/L in [9]; 0.1 mM/L in assay [10]; 0.1 mM/L in [11]; 0.1(0.2) mM/L in assay [12]; 0.1 mM/L in assay [13] (24 h). Besides, the MIC in [7] was 0.5 mM/L. Also, the “Growth of the strains in the presence of the metal salt” value in assay [8] was “None of the investigated strains was able to grow”. Also, in assay [8], the “Susceptibility of the investigated strains to the heavy metal” value (shortened to “Susceptibility”) is listed as “susceptible”.

As for `[K+].[K+].[O]=[Cr](=[O])([O-])[O][Cr](=[O])(=[O])[O-]` [Cr(VI), Potassium dichromate], the MIC in assay [7] is 0.2 mM/L. In addition, in [8], the “Susceptibility” value was “resistant”.

With `O=S(=O)([O-])[O-].[Cu+2]` [Cu(II), Copper sulphate], the “MIC threshold values of heavy metals” value was 3(4) mM/L in [1]; 3 mM/L in assay [2]; 3 mM/L in assay [3]; 3(4) mM/L in assay [4]; 3 mM/L in [5] (24 h); 4 mM/L in assay [5] (48 h). Besides, the “MIC threshold values of heavy metals” value in assay [6] is given as 3(4) mM/L; in [9], 3(4) mM/L; in assay [10], 3(4) mM/L; in assay [11] it was 3 mM/L; in [12], 3 mM/L; in assay [13] (24 h), 3 mM/L. Also, the MIC in assay [7] is reported as 1 mM/L. Besides, the “Susceptibility” value in assay [8] is “resistant”.

For the compound `[Cl][Ni][Cl]` [Ni(II), Nickel chloride], the “MIC threshold values of heavy metals” value in assay [1] (strain 3N, 24 h) came to 1 mM/L; in assay [1] (strain 3N, 48 h), 2 mM/L; in [2] (strain 2L, 24 h), 1 mM/L; in assay [3] (strain 5L, 24 h) it was 1 mM/L; in assay [4] (strain 5N, 24 h), 1 mM/L; in assay [5] (24 h), 1 mM/L. The “MIC threshold values of heavy metals” value in assay [5] (48 h) was found to be 2 mM/L; in assay [6] (strain 6L, 24 h), 1 mM/L; in assay [6] (strain 6L, 48 h) it was 2 mM/L; in [9] (strain 2N, 24 h), 1 mM/L; in assay [9] (strain 2N, 48 h), 2 mM/L; in assay [10] (strain 6N, 24 h) it was 1 mM/L. Further, the “MIC threshold values of heavy metals” value in assay [10] (strain 6N, 48 h) came to 2 mM/L; in [11] (strain 1N, 24 h), 1 mM/L; in assay [11] (strain 1N, 48 h), 2 mM/L; in [12] (strain 4P, 24 h), 1 mM/L; in assay [13] (24 h), 1 mM/L; in [13] (48 h), 2 mM/L. In addition, the MIC in assay [7] is on record as 1 mM/L. In [8] (compared with literature data for the model strain), the “Susceptibility” value was “semi-susceptible”.

Regarding `O=S(=O)([O-])[O-].[Zn+2]` [Zn(II), Zinc sulphate], the “MIC threshold values of heavy metals” value in [1] is 3(4) mM/L; in assay [2] it was 3(4) mM/L; in assay [3], 4(5) mM/L; in assay [4], 2(4) mM/L; in assay [5] (24 h), 4 mM/L; in [6], 4(5) mM/L. Besides, the “MIC threshold values of heavy metals” value is given as 3(4) mM/L in assay [9]; 2(3) mM/L in assay [10]; 4 mM/L in assay [11]; 3(5) mM/L in assay [12]; 4 mM/L in assay [13] (24 h). Further, the MIC in assay [7] was 1 mM/L. In addition, the “Susceptibility” value in assay [8] is “resistant”.

For the compound gentamicin [CN], the “MIC threshold values for a given antibiotic” value in assay [14] was 8 µg/mL; in [15] it was 256 µg/mL; in assay [16], 8 µg/mL; in [17], 8 µg/mL; in [18], 4 µg/mL; in [19], “≧256 μg/ml”. In addition, the “MIC threshold values for a given antibiotic” value in [20] is 8 µg/mL; in assay [21], 4 µg/mL; in assay [22] it was “≧256 μg/ml”; in assay [23], 8 µg/mL; in assay [24], 4 µg/mL. Also, the “Size of the growth inhibition zone” value is given as 23 mm in assay [25] (24 h); 20 mm in assay [25] (48 h); 0 mm in assay [26]; 23 mm in [27] (24 h); 18 mm in assay [27] (48 h); 25 mm in [28] (24 h). For the same compound, the “Size of the growth inhibition zone” value in assay [28] (48 h) was found to be 0 mm; in assay [29] (24 h) it was 24 mm; in [29] (48 h) it was 19 mm; in assay [30] it was 0 mm; in assay [31], 22 mm; in [32] (24 h), 22 mm. The “Size of the growth inhibition zone” value was 21 mm in assay [32] (48 h); 22 mm in assay [33] (24 h); 20 mm in assay [33] (48 h); 24 mm in [34] (24 h); 21 mm in assay [34] (48 h); 24 mm in [35].
